Reference: patent US6465489B1, “Ureidopiperidine derivatives as selective human NK3 receptor antagonists” (Sanofi-Synthelabo, priority 1998, dated 2002)

Tested on: bronchitic and cough response induced by citric acid
Assay: Bronchitic and cough response induced by citric acid in guinea pigs
Type: in vivo, guinea pig
Conditions: compared with osanetant
Text: In guinea pigs, the effect on the bronchitic and cough response induced by citric acid has been studied using the model described by S. Daoui et al., in Am. J. Resp. Crit. Care Med., 1998, 158, 42-48. In this test, the Example 10 compound has shown an activity 10 times greater than that of osanetant.

`CN(C)C(=O)NC1(c2ccccc2)CCN(CCCC2(c3ccc(Cl)c(Cl)c3)CCCN(C(=O)c3ccccc3)C2)CC1` (stereo not shown) [Example 10] was tested, and the “activity relative to osanetant” value was 10 times.
